Experimental data from patent US20260297627A1, “MODULATION OF GLOBAL REGULATORY MECHANISMS AND BIOSYNTHETIC GENE CLUSTERS FOR SIMPLIFIED PRODUCTION OF NATURAL PRODUCTS” (priority 2023, published 2026).
Entries after “also recorded” stand apart in the source; their conditions may differ.

How the values were obtained:
[1] = tested on: X. indica ΔrpmM-O mutant (strain VII); assay: Growth curve of X. indica ΔrpmM-O mutant (strain VII) with fed benzoic acid derivative; assay type: cell-based, Xenorhabdus indica
Experimental: To elucidate the influence of rpmM-O on biosynthesis, they were deleted together bases on pAR20 with the synthetic dsDNA fragments used for CRISPR/Cas12 mediated genome editing specific HA-L and R SEQ ID NOs 177-178 The resulting mutant ΔrpmM-O was then analysed for production and growth. Also with the addition of 3,4-AHBA, no growth and thus no production could be observed (FIG. 12 VII).
(§1) In order to analyze the growth curve, the strains were cultured in microtiter plates in a Tecan Spark microplate reader (FIG. 14). A comparison was initially made between strain V and strain VII with and without the addition of 3,4-AHBA (FIGS. 14 A and B). Furthermore, to investigate the sole effect of 3,4-AHBA on the cells, 3,4-AHBA was added to the cells in presence or not of the rpm BGC inducer IPTG (FIGS. 14A and B). […] Subsequently, in order to investigate the effect of the amino group on the benzoic acid, 3,4-DHBA was fed to both strains (FIGS. 14 C and D). […] It can therefore be concluded that the amino group is crucial for the bioactivity of rupshomycin.

[2] = tested on: X. indica ΔrpmM-O mutant with vector expressing rpmO (strain IX); conditions: 3,4-AHBA and IPTG; compared to empty vector control
Experimental: (§2) Addition of the inducer and benzoic acid was added from the start. The numbering I-IX corresponds to the strains in FIG. 12. A: growth of strain I culture with and without induction (1 mM IPTG), with and without addition of 3,4-AHBA. B: growth of strain V culture with and without induction, with and without addition of 3,4-AHBA. C: growth of strain I culture with and without induction, with and without addition of 3,4-DHBA. D: growth of strain V culture with and without induction, with and without addition of 3,4-DHBA. E: growth of induced and 3,4-AHBA supplemented strain VIII culture with vector expressing rpmMN or empty expression vector. F: growth of induced and 3,4-AHBA supplemented strain IX culture with vector expressing rpmO or empty expression vector.
(§3) Which of the rpmM-O genes are responsible for resistance to the biosynthesis product of the rpm BGC was the question addressed in the following studies. […] The influence of the vector was excluded by conjugating an empty vector into the strains as a control. […] Production of rupshomycins were performed in XPP3 medium with 2% (v/v) XAD-16 for in situ extraction.

[3] = tested on: X. indica ΔrpmM-O mutant with vector expressing rpmM and rpmN (strain VIII); conditions: 3,4-AHBA and IPTG; compared to empty vector control
Experimental: as §2, §3

[4] = tested on: X. indica ΔrpmM-O mutant with empty vector; conditions: 3,4-AHBA and IPTG; empty vector control
Experimental: as §2, §3

[5] = tested on: X. indica strain V; assay: Growth curve of X. indica strain V with fed benzoic acid derivative; assay type: cell-based, Xenorhabdus indica; conditions: with and without 3,4-AHBA, in presence or not of IPTG
Experimental: as §1

[6] = tested on: proteasome; conditions: role: inhibitor; cited from earlier work

For `Nc1cc(C(=O)O)ccc1O` [3,4-AHBA, 3-amino-4-hydroxy benzoic acid], the growth ([1]; 3,4-AHBA fed, rpm BGC induced, 96 well microtiter plate, 24 hours) was “culture dies after induction; also recorded: no growth; also recorded: a weak growth was observed in the first 3 hours, which then quickly collapsed and fell below the optical density of the starting point of the experiment”, the growth [2] was “no significant growth of the culture was observed compared to the empty vector control” and the growth [3] was “significant growth of the culture compared to the empty vector control”. For the same compound, the growth [4] was “severe growth defect of the culture” and the growth [5] was “no particular growth differences were observed”.
With `O=C(O)c1ccc(O)c(O)c1` [3,4-DHBA] the growth ([1]; 3,4-DHBA fed, induced vs non-induced culture) was “did not lead to the complete death of the ΔrpmM-O culture, but to a growth deficiency compared to the non-induced culture”.
In the case of `CC(C)CCCCC/C=C/C=C/C(=O)N[C@H](C(=O)N[C@H]1CC(O)CCNC(=O)/C=C/C(C)NC1=O)[C@@H](C)O` (some centres unmarked) [cepafungin I], the proteasome inhibition [6] is given as “potent proteasome inhibitors”.
For `CCCCCCC/C=C/C=C/C(=O)N[C@H](C(=O)N[C@H]1C[C@@H](O)CCNC(=O)/C=C/[C@H](C)NC1=O)[C@@H](C)O` [glidobactin A], the proteasome inhibition [6] is listed as “potent proteasome inhibitors”.
